Laboratory results published in ChEMBL document CHEMBL2040838, “Synthesis of C-4-modified zanamivir analogs as neuraminidase inhibitors and their anti-AIV activities” (Eur J Med Chem, 2012).

Tests used:
Neuraminidase [1] = target: T1, Neuraminidase (Influenza A virus, UniProt B4URF0); experiment: Inhibition of Influenza A virus (A/Indonesia/5/2005(H5N1)) […] recombinant neuraminidase using 2'-(4-methylumbelliferyl)-alpha-D-N-acetylneuraminic acid as substrate after 1 hr by fluorescence assay
Neuraminidase [2] = target: T1, Neuraminidase; experiment: Inhibition of Influenza A virus (A/Sydney/5/97(H3N2)) recombinant neuraminidase using 2'-(4- methylumbelliferyl)-alpha-D-N-acetylneuraminic acid as substrate after 1 hr by fluorescence assay; parameters: species or system Influenza A virus (A/Sydney/5/1997(H3N2))
Influenza A virus [3] = experiment: Antiviral activity against Influenza A virus (A/Indonesia/5/2005(H5N1)) […] infected in MDCK cells assessed as protective rate against virus-induced cytopathic effect at 4 uM after 2 days by neutral red uptake assay; assay type: functional
Influenza A virus [4] = experiment: Antiviral activity against Influenza A virus (A/Indonesia/5/2005(H5N1)) […] infected in MDCK cells assessed as protective rate against virus-induced cytopathic effect at 5 uM after 2 days by neutral red uptake assay; assay type: functional
[5] = Clearance in Sprague-Dawley rat at 2 mg/kg, iv; assay type: ADME, organism-based; parameters: dose 2 mg/kg, route intravenous; conditions: in vivo
[6] = Volume of distribution in Sprague-Dawley rat at 2 mg/kg, iv; assay type: ADME, organism-based; parameters: dose 2 mg/kg, route intravenous; conditions: in vivo
in vivo [7] = conditions: Sprague-Dawley, rat, po, 10 mg/kg
in vivo [8] = conditions: Sprague-Dawley, rat, po, 10 mg/kg; remark: listed apart in the source
in vivo [9] = conditions: Sprague-Dawley, rat, iv, 2 mg/kg
in vivo [10] = conditions: Sprague-Dawley, rat, plasma, iv, 10 mg/kg
in vivo [11] = conditions: Sprague-Dawley, rat, plasma, po, 10 mg/kg

T1 sequence (B4URF0 whole entry): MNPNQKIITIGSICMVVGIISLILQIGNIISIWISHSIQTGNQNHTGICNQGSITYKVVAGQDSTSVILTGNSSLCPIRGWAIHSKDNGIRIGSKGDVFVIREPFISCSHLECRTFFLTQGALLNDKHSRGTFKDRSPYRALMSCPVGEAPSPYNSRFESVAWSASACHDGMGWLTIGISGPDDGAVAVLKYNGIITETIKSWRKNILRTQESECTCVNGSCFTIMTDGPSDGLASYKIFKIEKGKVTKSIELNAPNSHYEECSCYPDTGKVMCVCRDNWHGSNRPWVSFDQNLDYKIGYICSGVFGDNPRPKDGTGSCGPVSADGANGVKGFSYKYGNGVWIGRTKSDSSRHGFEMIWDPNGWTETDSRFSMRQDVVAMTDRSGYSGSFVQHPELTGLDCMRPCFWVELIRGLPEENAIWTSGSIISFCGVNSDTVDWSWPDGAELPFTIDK

Structure (SMILES)	IC50 (Neuraminidase [1])	IC50 (Neuraminidase [2])	Activity (Influenza A virus [3])	Activity (Influenza A virus [4])	other results
CC(=O)N[C@H]1[C@H]([C@H](O)[C@H](O)CO)OC(C(=O)O)=C[C@@H]1NC(=O)NCc1ccccc1	> 1000 µM	705 µM			
CC(=O)N[C@H]1[C@H]([C@H](O)[C@H](O)CO)OC(C(=O)O)=C[C@@H]1NC(=O)N[C@@H](C)C(=O)NCC(=O)O	126 µM	101 µM			
CC(=O)N[C@H]1[C@H]([C@H](O)[C@H](O)CO)OC(C(=O)O)=C[C@@H]1NC(=O)N[C@@H](C)C(=O)O	690 µM	663 µM	0%		
CC(=O)N[C@H]1[C@H]([C@H](O)[C@H](O)CO)OC(C(=O)O)=C[C@@H]1NC(=O)N[C@@H](CC(N)=O)C(=O)O	2.72 µM	0.58 µM	8.7%		
CCCCNC(=S)N[C@H]1C=C(C(=O)O)O[C@@H]([C@H](O)[C@H](O)CO)[C@@H]1NC(C)=O	21.4 µM	64.5 µM	32.6%		
CC(=O)N[C@H]1[C@H]([C@H](O)[C@H](O)CO)OC(C(=O)O)=C[C@@H]1NC(=O)N1CCC[C@H]1C(=O)O	> 1000 µM	574 µM	0%		
CC(=O)N[C@H]1[C@H]([C@H](O)[C@H](O)CO)OC(C(=O)O)=C[C@@H]1NC(=O)Nc1ccc(Cl)cc1	> 1000 µM	> 1000 µM		0%	
CC(=O)N[C@H]1[C@H]([C@H](O)[C@H](O)CO)OC(C(=O)O)=C[C@@H]1N1CCOCC1	517 µM	567 µM	26.8%		
CC(=O)N[C@H]1[C@H]([C@H](O)[C@H](O)CO)OC(C(=O)O)=C(C/C=C/c2ccc(C)cc2)[C@@H]1O					Ki (Neuraminidase [1]): 7.3 µM
CC(=O)N[C@H]1[C@H]([C@H](O)[C@H](O)CO)OC(C(=O)O)=C[C@@H]1NC(=O)Nc1ccc(F)cc1	> 1000 µM	> 1000 µM		0%	
CC(=O)N[C@H]1[C@H]([C@H](O)[C@H](O)CO)OC(C(=O)O)=C[C@@H]1NC(=S)Nc1ccc(C(F)(F)F)cc1	> 1000 µM	894 µM		34.4%	
CC(=O)N[C@H]1[C@H]([C@H](O)[C@H](O)CO)OC(C(=O)O)=C[C@@H]1NC(=N)N [ZANAMIVIR]				67.2%	clearance [5]: 1.42 mL/min/kg; Vd [6]: 0.03 L/kg; half-life (in vivo [7]): 15 min; bioavailability (in vivo [8]): 2.7%; half-life (in vivo [9]): 24 min
CC(=O)N[C@H]1[C@H]([C@H](O)[C@H](O)CO)OC(C(=O)O)=C[C@@H]1NC(=S)Nc1cccc2ccccc12	901 µM	674 µM		0%	
CC(=O)N[C@H]1[C@H]([C@H](O)[C@H](O)CO)OC(C(=O)O)=C[C@@H]1N1CCCC(C(=O)O)C1 (some centres undefined)	532 µM	496 µM			
CC(=O)N[C@H]1[C@H]([C@H](O)[C@H](O)CO)OC(C(=O)O)=C[C@@H]1NC(=O)NCC(=O)NCC(=O)O	70.4 µM	68.5 µM	37.1%		
COc1cccc(NC(=S)N[C@H]2C=C(C(=O)O)O[C@@H]([C@H](O)[C@H](O)CO)[C@@H]2NC(C)=O)c1	> 1000 µM	> 1000 µM		0%	
CC(=O)N[C@H]1[C@H]([C@H](O)[C@H](O)CO)OC(C(=O)O)=C[C@@H]1N1CCN(c2cccc(C(F)(F)F)c2)CC1	122 µM	271 µM			
CC(=O)N[C@H]1[C@H]([C@H](O)[C@H](O)CO)OC(C(=O)O)=C[C@@H]1NC(=O)NCC(=O)O	113 µM	530 µM	6.2%		
CC(=O)N[C@H]1[C@H]([C@H](O)[C@H](O)CO)OC(C(=O)O)=C[C@@H]1NC(=O)Nc1ccc(C)cc1	933 µM	777 µM		0%	

Structure (SMILES)	IC50 (Neuraminidase [1])	IC50 (Neuraminidase [2])	Activity (Influenza A virus [3])	Activity (Influenza A virus [4])	other results
CC(=O)N[C@H]1[C@H]([C@H](O)[C@H](O)CO)OC(C(=O)O)=C[C@@H]1NC(=O)N[C@H](CC(N)=O)C(=O)O	77.3 µM	22.3 µM			
CC(=O)N[C@H]1[C@H]([C@H](O)[C@H](O)CO)OC(C(=O)O)=C[C@@H]1NC(=S)Nc1ccccc1	> 1000 µM	> 1000 µM		13.6%	
CC(=O)N[C@H]1[C@H]([C@H](O)[C@H](O)CO)OC(C(=O)O)=C[C@@H]1N1CCC2(CC1)OCCO2	738 µM	511 µM	0%		
CC(=O)N[C@H]1[C@H]([C@H](O)[C@H](O)CO)OC(C(=O)O)=C[C@@H]1NC(=S)NC1CC1	295 µM	550 µM	11.3%		
CCNC(=S)N[C@H]1C=C(C(=O)O)O[C@@H]([C@H](O)[C@H](O)CO)[C@@H]1NC(C)=O	298 µM	612 µM	27.8%		
CC(=O)N[C@H]1[C@H]([C@H](O)[C@H](O)CO)OC(C(=O)O)=C[C@@H]1NC(=S)Nc1ccccc1Br	> 1000 µM	> 1000 µM		2.9%	
COc1ccc(NC(=O)N[C@H]2C=C(C(=O)O)O[C@@H]([C@H](O)[C@H](O)CO)[C@@H]2NC(C)=O)cc1	910 µM	848 µM		6.9%	
CC(=O)N[C@H]1[C@H]([C@H](O)[C@H](O)CO)OC(C(=O)O)=C[C@@H]1NC(=O)N[C@H](C(=O)O)C(C)C	917 µM	54.4 µM	0%		
CC(=O)N[C@H]1[C@H]([C@H](O)[C@H](O)CO)OC(C(=O)O)=C[C@@H]1NC(=O)NCc1ccco1	38.4 µM	6.6 µM		58%	half-life (in vivo [7]): 340 min; AUC(0-t) (in vivo [10]): 14000 ng·h/mL; AUC(0-t) (in vivo [11]): 381 ng·h/mL; bioavailability (in vivo [8]): 2.73%
CC(=O)N[C@H]1[C@H]([C@H](O)[C@H](O)CO)OC(C(=O)O)=C[C@@H]1NC(=O)N[C@H](C(=O)O)[C@@H](C)O	392 µM	488 µM	0%		
CC(=O)N[C@H]1[C@H]([C@H](O)[C@H](O)CO)OC(C(=O)O)=C[C@@H]1NC(=S)NCCCl	67.2 µM	100 µM	20.3%		
CC(=O)N[C@H]1[C@H]([C@H](O)[C@H](O)CO)OC(C(=O)O)=C[C@@H]1NC(=S)Nc1ccccc1F	396 µM	57.1 µM		14.8%	
CC(=O)N[C@H]1[C@H]([C@H](O)[C@H](O)CO)OC(C(=O)O)=C[C@@H]1NC(=O)N[C@@H](CCC(N)=O)C(=O)O	103 µM	58.1 µM			
CC(=O)N[C@H]1[C@H]([C@H](O)[C@H](O)CO)OC(C(=O)O)=C[C@@H]1NC(=S)Nc1cccc(C(F)(F)F)c1	> 1000 µM	> 1000 µM		0%	
COc1ccccc1NC(=S)N[C@H]1C=C(C(=O)O)O[C@@H]([C@H](O)[C@H](O)CO)[C@@H]1NC(C)=O	578 µM	89.6 µM		11.7%	
CC(=O)N[C@H]1[C@H]([C@H](O)[C@H](O)CO)OC(C(=O)O)=C[C@@H]1NC(=O)N[C@@H](Cc1ccccc1)C(=O)O	> 1000 µM	629 µM	0%		
CC(=O)N[C@H]1[C@H]([C@H](O)[C@H](O)CO)OC(C(=O)O)=C[C@@H]1N1CCN(c2ccccc2)CC1	761 µM	836 µM			
CSCC[C@H](NC(=O)N[C@H]1C=C(C(=O)O)O[C@@H]([C@H](O)[C@H](O)CO)[C@@H]1NC(C)=O)C(=O)O	406 µM	413 µM	0%		
